Results reported in PMC11133798, “Vosoritide treatment for children with hypochondroplasia: a phase 2 trial” (eClinicalMedicine, 2024).

Legend:
[1] = test system: collagen X biomarker (CXM); assay: Serum collagen X biomarker (CXM) by ELISA; assay type: in vivo, human
Experimental: (§1) Secondary outcomes included the change in body proportions as measured by sitting height to standing height ratio and arm span minus standing height, as well as the change in bone age to chronological age ratio after 12 months of therapy. Sitting height was measured three times at each visit using a sitting height table. The average of the three values was used. Sitting height to standing height ratio and arm span minus standing height were standardized for age and sex using available reference data and SDS were calculated.[11]^,[12] Bone age X-rays were read by a single reviewer who was blinded to participant ID, age and time point. Exploratory endpoints included pharmacokinetic parameters, pharmacodynamic markers including collagen X biomarker (CXM) levels and urine cGMP production, and changes in quality of life as measured by the QoLISSY scale.[13] CXM levels in serum were measured in duplicate via an ELISA assay at the Shriners Hospitals for Children in Portland, Oregon as previously described.[14] The average of the two values was used for analysis. Urine samples were obtained for cGMP measurement at baseline and 60, 120, and 240 min after vosoritide injections at the Day 1, Month 6 and Month 12 visits. cGMP levels were assayed at ICON Laboratories (Farmingdale, NY) and were normalized to urine creatinine levels at each time point.

[2] = test system: urine cGMP; assay: Urine cGMP after vosoritide injection, normalized to urine creatinine; assay type: in vivo, human
Experimental: as §1

[3] = test system: neutral endopeptidase (NEP); settings: conveyed by Pro-Gly addition on the N-terminus; protocol statement, no data shown; cited from earlier work
Excerpt: Third, Dr. Dauber (the PI) will p ...

[4] = test system: children with hypochondroplasia; assay: Parent-reported quality of life, QoLISSY scale; assay type: in vivo, human
Experimental: as §1
(§2) No formal power calculations were done for this proof of principle study. Sample size was determined based on logistical feasibility. Medication adherence was calculated using the number of returned empty vials divided by the number of days of prescribed therapy. Demographics and clinical characteristics were summarized with mean and standard deviation (SD), median and interquartile (IQR) for numerical variables, frequency and proportion for categorical variables. Primary and secondary clinical outcomes were summarized with mean (SD) for the 6-month observation period and the 12-month treatment period. Paired t-tests were carried out to compare the difference between the treatment and observation periods. The corresponding p-value and 95% confidence interval (CI) were reported. Box and whisker plots were used for both primary endpoints (annualized growth velocity and height SDS) and exploratory endpoints (CXM and cGMP) to visualize the trends for the change from baseline to each of the follow-up visits. Safety data (AEs) were summarized as count and percentage of patients as well as the number of total occurrences per each listed AE for the observation period and the treatment period, respectively. As exploratory analyses, the primary endpoints were stratified based on age, baseline growth velocity and baseline height SDS. The summaries of mean (SD) for each visit, mean differences between treatment and observation periods, and the corresponding p-value and 95% CI were all reported. Parent reported quality of life using the QoLISSY scale was also reported with a similar tabular format. Data were analyzed using SAS for Windows version 9.4 (SAS Institute Inc., Cary, NC). A two-sided test with a significance level of 0.05 was used for all hypothesis tests.

[5] = test system: subjects of trials to date; settings: in vivo; cited from earlier work
Excerpt: We will perform a single arm, open‐ label, Phase I/II study of vosoritide in patients with the selected genetic causes of short stature identified above.

[6] = test system: patients with achondroplasia; settings: cited from earlier work
[7] = test system: children with hypochondroplasia; assay: Phase 2 trial secondary outcomes: bone age, sitting height ratio, arm span minus height; assay type: in vivo, human
Experimental: as §1, §2

[8] = test system: rat chondrosarcoma cells transfected with FGFR3 containing the hypochondroplasia mutation; settings: addition of vosoritide; similar to achondroplasia mutation; n=3; ref unpublished BioMarin data; cited from earlier work
Excerpt: The rationale for using vosoritide in hypochondroplasia is primarily an extension of the positive clinical trial results in patients with achondroplasia, a more severe perturbation of the same gen ...

## PGQEHPNARKYKGANKKGLSKGCFGLKLDRIGSMSGLGC (disulfide) [vosoritide, recombinant 39-amino-acid C-type natriuretic peptide analog expressed in E. coli, cyclic by an intramolecular disulfide bond]
[1]; n=24, on treatment
  CXM levels, Month 6 versus Month 12 visit: no significant differences
[1]; serum, ELISA in duplicate, 15 μg/kg/day SC, mean (SD), Day 1 22.48 (6.49), SD
  CXM, Month 12: 41.62 (15.86) ng/ml
[2]; Day 1, Month 6, Month 12 compared
  Average maximum cGMP increase from baseline across visits: not significantly different at Day 1, Month 6 or Month 12
[2]; samples at baseline, 60, 120 and 240 min after injection
  Time of peak urine cGMP after administration: 2 h
[2]; samples at baseline, 60, 120 and 240 min after injection, Day 1, Month 6, Month 12
  Time to evident increase in urine cGMP after administration: ≤ 1 h
[3]
  Degradation by neutral endopeptidase (NEP): resistance to neutral endopeptidase (NEP) degradation
[4]; 12 months of treatment
  Overall or domain specific parental-reported quality of life (QoLISSY): no significant changes
[4]; mean, 95% CI (-7.29, 3.75), p=0.51
  QoLISSY Coping, change during treatment period: -1.77
[4]; mean, 95% CI (-9.30, 10.39), p=0.91
  QoLISSY Belief, change during treatment period: 0.54
[4]; mean, 95% CI (-10.25, 7.47), p=0.75
  QoLISSY Physical, change during treatment period: -1.39
[4]; mean, 95% CI (-10.55, 4.09), p=0.37
  QoLISSY Total (Social, Emotional, Coping), change during treatment period: -3.23
[4]; mean, 95% CI (-12.12, 3.01), p=0.23
  QoLISSY Emotional, change during treatment period: -4.56
[4]; mean, 95% CI (-12.43, 4.96), p=0.38
  QoLISSY Social, change during treatment period: -3.74
[4]; parent-reported, mean, SD (16.08), Day 1 60.33 (18.99)
  QoLISSY Total (Social, Emotional, Coping), Month 6: 61.73
[4]; parent-reported, mean, SD (16.43)
  QoLISSY Treatment, Month 12: 38.23
[4]; parent-reported, mean, SD (17.99)
  QoLISSY Total (Social, Emotional, Coping), Month 12: 57.10
[4]; parent-reported, mean, SD (18.36)
  QoLISSY Treatment, Month 6: 37.86
[4]; parent-reported, mean, SD (18.44)
  QoLISSY Emotional, Month 12: 62.37
[4]; parent-reported, mean, SD (18.71)
  QoLISSY Coping, Month 12: 35.79
[4]; parent-reported, mean, SD (18.77), Day 1 52.60 (18.22)
  QoLISSY Physical, Month 6: 55.38
[4]; parent-reported, mean, SD (19.50), Day 1 61.46 (21.05)
  QoLISSY Social, Month 6: 61.20
[4]; parent-reported, mean, SD (20.09)
  QoLISSY Physical, Month 12: 51.22
[4]; parent-reported, mean, SD (20.12), Day 1 66.93 (22.25)
  QoLISSY Emotional, Month 6: 68.62
[4]; parent-reported, mean, SD (20.40)
  QoLISSY Social, Month 12: 57.72
[4]; parent-reported, mean, SD (20.45), Day 1 38.14 (19.61)
  QoLISSY Coping, Month 6: 35.61
[4]; parent-reported, mean, SD (22.98)
  QoLISSY Belief, Month 12: 66.93
[4]; parent-reported, mean, SD (29.10), Day 1 65.22 (28.63)
  QoLISSY Belief, Month 6: 62.23
[5]
  Serious hypersensitivity reactions: no serious hypersensitivity reactions
  Subjects having some form of injection site reaction: ~ 85%
  Subjects with an event of hypotension in study 111-205: 3.3%
  Subjects with hypotension documented on vital sign measurement: ~ 45%
[6]; achondroplasia, 15 µg/kg, after 42 months of intervention, ref 2 (protocol list)
  Mean gain in height standard deviation score: 1.03 SD
[6]; annualized growth velocity, Phase II achondroplasia, ref 2 (protocol list)
  Efficacy of 15 µg/kg/day dose versus 30 µg/kg/day dose: equally efficacious to the 30 µg/kg/day dose
[6]; in vivo
  Symptomatic hypotensive episode: a single patient
[7]; 15 μg/kg/day SC, mean (SD), Day 1 61.42 (30.40), single blinded reader, SD
  Bone age, Month 12: 71.58 (32.17) months
[7]; Day 1 to Month 12, mean (95% CI), p<0.0001
  Bone age, change during treatment period: 10.17 (7.03, 13.31) months
[7]; Day 1 to Month 12, mean (95% CI), p=0.67
  Bone age/chronological age, change during treatment period: 0.01 (−0.03, 0.05)
[7]; Day 1 to Month 12, mean (95% CI), observation period −0.001 (−0.003, 0.001)
  Sitting height ratio unadjusted, change during treatment period: −0.009 (−0.01, −0.006)
[7]; Day 1 to Month 12, mean (95% CI), observation period −0.66 (−1.72, 0.40)
  Arm span minus height unadjusted, change during treatment period: −0.76 (−1.55, 0.04)
[7]; mean (SD), Day 1 0.78 (0.14), SD
  Bone age/chronological age, Month 12: 0.79 (0.15)
[7]; mean (SD), Day 1 −6.26 (2.83), protocol: measurements in centimeters, SD
  Arm span minus height unadjusted, Month 12: −7.01 (3.21)
[7]; sitting height/standing height, mean (SD), Day 1 0.63 (0.02), SD
  Sitting height ratio unadjusted, Month 12: 0.62 (0.02)
[8]
  ERK1/2 activation: decrease ERK1/2 activation
